Experimental data taken from publication PMC5859250, “Contribution of transformation products towards the total herbicide toxicity to tropical marine organisms” (Scientific Reports, 2018).
Values after ≈ are worked out from the molar mass of the structure shown.

Assays:
[1] = test system: prawn (Penaeus monodon) larvae; experiment: Prawn larvae assay, metamorphosis of nauplii into protozoea (24 h static); format: in vivo; settings: 24 h
Method: The giant tiger prawn (Penaeus monodon) can be found throughout the tropical Indo-Pacific region and can be obtained from aquaculture facilities and has a well-described life cycle. The aim of the larval prawn assay was to determine whether the herbicides and transformation products inhibit early naupliar development. Prawn eggs hatch into their first larval stage (nauplii), typically 12–15 h after spawning. During development the nauplii are lecithotrophic, and over the course of the next 36 h, nauplii pass through 6 sub-stages before metamorphosing into protozoae[67],[68].
Freshly hatched nauplii were harvested by light attraction over 30 min, and washed and aerated for 10 min with seawater, and transported to AIMS in Townsville, Queensland. […] The toxicity assays were performed in incubator shakers (set to 30 °C) under very low light and with gentle shaking to prevent individuals adhering to the side of experimental containers.
The larval stock was gently concentrated via reverse-gravity filtration to a higher density before dispensing 8–10 individuals per 20 ml glass scintillation vials. Additional positive control treatments in the form of 4 concentrations of copper II chloride solution (2 to 900 µg l^−1 Cu), were included for test validation. The static assay was terminated after 24 h and 10% seawater formalin was added as a preservative for later microscopy. Metamorphosis was considered successful when nauplii had developed into protozoea.
(§1) The model was constrained by applying a lower limit of 0% inhibition and all curves were tested for normality of the residuals and a replicate test was applied to assess the goodness of fit[36]. The probability that ICX values generated by the logistic curves were statistically different between parent and aged herbicide solutions was tested by applying the F test in Graph Pad Prism v6. ICXs were considered different when p < 0.05. Where inhibition data could not be fitted to logistic curves, one-way analysis of variance (ANOVA) was performed to identify treatments which caused significant (p < 0.05) inhibition comparison with control treatments (NCSS v9, Utah, USA). The larval prawn experimental data was arcsine square root transformed prior to statistical analysis.

[2] = Herbicide degradation in outdoor tanks with coastal seawater and sediment (330 d); format: physicochemical
From the text: Photosystem II herbicides/transformation product solutions were produced by adding herbicides to seawater within separate 120 l outdoor fibreglass tanks, in the presence of natural coastal sediments (further details can be found in Mercurio 2016)[36]. […] The tanks used were previously described in Mercurio et al.[8], with treatment water being partially shaded (70%) and exposed to a maximum of 700 µmol photons m^−2s^−1 over the course of the experiment. The application of a natural diurnal light regime and coastal sediment were previously shown to increase the rates of PSII herbicide degradation and represent more natural conditions than those used in standard degradation tests[8],[36]. Evaporation was minimised with loose-fitting clear acrylic lids and the water continuously circulated using Turbelle Nanostream pumps. Prior to every sampling period evaporation losses were replenished with equal volumes of MilliQ water. The average temperature was 25.7 °C with a range of 15.6–36.6 °C over the course of the study. Unfiltered coastal seawater and sediments were collected from the intertidal zone adjacent to the Australian Institute of Marine Science (19°16′S, 147°03′E), Cape Cleveland, QLD. The sediments were prepared one week prior to use by sieving (>2 mm removed) and thorough mixing. Each tank contained 5 kg of sediment. Physical and chemical information on the seawater and sediments used the treatments can be found in SOM Table 1.
The 20 tanks included replicates for control seawater (n = 4) and the PSII herbicides diuron (n = 4), atrazine (n = 3), simazine (n = 3), hexazinone (n = 3), and ametryn (n = 3). Herbicide treatments and replicates were randomized among tanks. The herbicides were purchased from Sigma Aldrich (>95% purity) and were introduced at ~1 mg l^−1 to enable direct chemical and toxicological testing of the herbicide transformation product mixtures without additional concentration steps. […] The same concentration was used in the controls. Sample collection, internal standard addition, and analytical techniques (HPLC-MS/MS using an AB/Sciex API5500Q mass spectrometer equipped with an electrospray interface and coupled to a Shimadzu Prominence HPLC system) were as previously reported[7],[36]. […] Individual replicates were analysed using HPLC/TripleTOF mass spectrometry for possible transformation products as described in Mercurio 2016[36]. Briefly, 0.2 µm-filtered samples were directly injected into an ABSciex API5600+ Triple TOF mass spectrometer (ABSciex, Concord, Ontario, Canada) equipped with an electrospray (TurboV) interface coupled to a Shimadzu Nexera HPLC system (Shimadzu Corp., Kyoto, Japan). Separation was achieved using a 4 micron 50 × 2.0 mm Phenomenex Synergi Fusion RP column (Phenomenex, Torrance, CA) run at 45 °C, and a flow rate of 0.4 mL min^−1 with a linear gradient starting at 8% B for 0.5 minutes, ramped to 100% B in 8 minutes then held at 100% for 2.0 minutes followed by equilibration at 8% B for 2.5 minutes (A = 1% methanol in HPLC grade water, B = 95% methanol in HPLC grade water, both containing 0.1% acetic acid). The mass spectrometer was operated in positive ion SWATH mode. Briefly this mode comprises a TOF scan of 50 millisecond duration followed by small segments of the mass range being transmitted through the quadrupole, fragmented in the collision cell and full TOF mass spectra taken of the transformation products. Data from these experiments was examined using the Masterview software (ABSciex).
Potential transformation products identified using TOF mass spectrometry and other potential transformation products identified from literature were then re-examined by HPLC/ triple quadrupole mass spectrometry using multiple reaction monitoring. Product ions used were as identified from QTOF data or from literature references and parameters such as collision energy optimised by repeated injections of samples for compounds detected. […]

Symbiodinium sp. = experiment: Microalgal PAM fluorometry assay, inhibition of ∆F/Fm′ (24 h, 96-well plate); format: cell-based; settings: 24 h
From the text: (§2) Microalgae play a critical role in the marine food web and have been used in a number of sensitive assays for the assessment of toxicity of both herbicides and their transformation products[13],[16],[60]. High throughput 96 well plate designs allow for increased replication and a wide range of concentrations especially when paired with pulse amplitude modulation (PAM) fluorometry[50],[61]. PAM fluorometry measures chlorophyll fluorescence and can be used to calculate inhibitions of effective quantum yield ∆F/Fm′, which is proportional to reduced photosynthetic efficiency[62] and growth in microalgae[63] and can be plotted against toxicant concentrations to derive concentrations that inhibit ∆F/Fm′ by 10, 20 and 50% (IC10, IC20 and IC50). In the present study the green algae (Dunaliella sp.) and coral symbiont (Symbiodinium sp.) were exposed to herbicides and aged herbicide solutions for 24 h in a 96-well plate format. A Maxi-Imaging-PAM (I-PAM) (Walz, GmbH Germany) was used to measure inhibition of ∆F/Fm′ using settings provided previously[36] and below.
(§3) Symbiodinium cells were isolated from coral by air blasting branches of Acropora tenuis colonies collected (collected under the permit G10-33440.1) at 2–5 m depth in Nelly Bay, Magnetic Island, GBR[36]. Symbiodinium cells were inoculated into sterile IMK growing media, the culture purified, DNA extracted, and Clade C1 identified as published previously[64],[65]. Cultures were maintained at 26 °C, 60 µE PAR, 14:10 light:dark photoperiod inside environmental chambers (Steridium e500). The Dunaliella sp. (CS-353) (Chlorophyceae) was obtained from the CSIRO Collection of Living Microalgae (CCLM). The algae was subcultured and grown in F2 media. For the toxicology assays, an exponentially growing culture was employed[63] and density adjusted by hemocytometry under 10× magnification. Day 7 sub-cultures were used throughout the experiment.
(§4) Herbicide solutions were delivered into each treatment plate using a Perkin Elmer Janus liquid handling system. Each well of the black 96-well plates (Perkin Elmer) received 100 µl herbicide solution as well as 100 µl of algal suspension (added via multi-channel pipette) and the solution was gently mixed. […] Each plate included a 3 µg l^−1 positive diuron control (n = 4) to confirm consistent sensitivities among the replicate algal subcultures. Treatments positions were randomised across the plates in duplicate[50],[61],[66]. Symbiodinium culture plates were incubated over a 12:12 h light:dark cycle at 26 °C and 60–70 µmol photons m^−2 s^−1 and Dunaliella sp. Plates incubated at: 26 °C and 130 µmol photons m^−2 s^−1. Microalgae were exposed for 24 h prior to PAM measurements. Samples were subjected to the 50 µmol photons m^−2 s^−1 actinic light for 1 min prior to measurement in the Maxi-IPAM (Actinic light = 1, ML = 10, ML frequency = 8, gain = 2 and damping = 1).
as §1

Dunaliella sp. = experiment: as above; format: cell-based; settings: 24 h
From the text: as §2, §3, §4, §1

[3] = vs solvent control, ANOVA p < 0.05, aged solutions as concentration of parent herbicide
[4] = read-out: IC20 parent (inhibition of ∆F/Fm′ by 20%)
[5] = read-out: IC50 parent (inhibition of ∆F/Fm′ by 50%)

Question: With CCNc1nc(NC(C)C)nc(SC)n1 [Ametryn] as the molecule, how does the “Effect on prawn larval metamorphosis (in words)” value ([1]; concentration range tested) read?
Answer: did not affect metamorphosis

Question: What about the “LOEC, prawn larval metamorphosis” value [1, 3] of the same molecule?
Answer: >517 µg/L

Question: And the “NOEC, prawn larval metamorphosis” value [1, 3]?
Answer: 517 µg/L

Question: What about the “% degradation” value ([2]; 330 d) of the same molecule?
Answer: 56%

Question: What about the Parent herbicide concentration ([2]; day 330, seawater with sediment, outdoor tanks) of the same molecule?
Answer: 189 µg/L

Question: What about the IC20 (Symbiodinium sp.; [4]) of the same molecule?
Answer: 0.82 ng/mL (≈ 3.61 nM)

Question: What about the IC50 (Symbiodinium sp.; [5]) of the same molecule?
Answer: 2.2 ng/mL (≈ 9.68 nM)

Question: And the “IC10 parent (inhibition of ∆F/Fm′ by 10%)” value (Symbiodinium sp.; Symbiodinium sp., pure compound)?
Answer: 0.47 (0.43–0.51) µg l^−1

Question: And the IC20 (Dunaliella sp.; [4])?
Answer: 1.23 ng/mL (≈ 5.41 nM)

Question: What about the IC50 (Dunaliella sp.; [5]) of the same molecule?
Answer: 3.4 ng/mL (≈ 15 nM)

Question: What about the “IC10 parent (inhibition of ∆F/Fm′ by 10%)” value (Dunaliella sp.; Dunaliella sp., pure compound) of the same molecule?
Answer: 0.70 (0.65–0.74) µg l^−1
